What was measured:
[1] = tested on: MKN45 cells; test: MKN45 cell proliferation assay (Cell-Titer-Glo, 120 h); assay type: cell-based; details: for EC50: Homo sapiens, MKN-45, 120 h, Cell-Titer-Glo, growth inhibition, read-out: MKN45 Cell Prolif. 120 hr (EC50); for MKN45 Cell Prolif. 120 hr (Ymin-Obs): minimal percent of DMSO control observed in the concentrations tested
Experimental: MKN45 cells were obtained from Celgene internal cell banks and cultured in RPMI complete media (RPMI-1640, 1× Penicillin/Streptomycin, 1× glutamine, 1× Sodium Pyruvate, Non-essential Amino Acids, 10% Fetal Bovine serum, all component from Thermo-Fisher). Compounds were dispensed into 384-well plates using an HP DE300 compound printer in triplicate with 8 compounds on each plate. For each compound, a 10-point dose response was printed at half-log dilutions starting at either 1 uM or 10 uM. The DMSO concentration was kept constant for a final assay concentration of 0.1% per well assuming 50 ul final media volume. Compound plates were sealed and frozen at −20 C until use.
For each assay batch, compound plates were thawed and allowed to reach room temperature, and cells were seeded at 400 cells per well in 50 ul complete RPMI media. After 120 hours of incubation at 37 C and 5% CO2, cells were lysed by addition of 25 μL of Cell-Titer-Glo Reagent (Promega Corporation, Madison, WI), as per manufacturer's instructions, protected from light, shaken for 45 minutes, and total luminescence read by a Perkin Elmer Envision plate reader. Total luminescence signal is linearly correlated with cell number remaining in the well.
Luminescence data was processed per plate by subtracting reagent-only “blank” well luminescence from all measured values and calculating a percent of DMSO control value for each treatment well. Then, to determine the half-maximal effective concentration (EC50) values for cell growth inhibition, a four parameter logistic model was fit to the data for each DMSO-normalized compound: Sigmoidal Dose-Response Model: (FIT=(A+((B−A)/1+((C/x)^D)))) where C is the inflection point (EC50), D is the Hill slope, and A and B are the low and high limits of the fit respectively. The lower limit of the fit (value A) is referred to as Ymin-calculated. The minimal percent of DMSO control that is observed in the concentrations tested for each compound is labeled as “Ymin-obs”, and was recorded and reported in the tables. Sigmoidal fit curves were processed and evaluated using Activity Base (IDBS, Alameda, CA).

[2] = molecular target: T1, WEE1 (Homo sapiens, UniProt P30291+Q96SW2); test: WEE1-ePL degradation assay (LentiX-WEE1-ePL-GSPT1-ND cells, InCELL Hunter luminescence, 4 h); assay type: cell-based; details: 293T-LentiX WEE1-ePL cells; for 293T-LentiX WEE1-ePL Degradation 4 hr (Ymin): lower limit of the fit (0 = luciferase inhibitor, Ymax = DMSO control); for DC50: read-out: 293T-LentiX WEE1-ePL Degradation 4 hr (EC50)
T1 construct: C-terminal ePL-tagged (DiscoverX, Fremont, CA) full-length WEE1 expression construct; expressed in transfected cells; host or cells: LentiX-HEK293T (Invitrogen), lentiviral transduction; co-expressing GSPT1-GN (G576N, lacking the first 158 amino acids)
Outline: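 First, compounds were pre-plated as 10-point, 3-fold dilutions (top 1 uM or 10 uM) with DMSO control; next, WEE1-ePL-expressing HEK293T cells were added and held 4 h at 37 °C; finally, InCELL Hunter reagent was applied for 30 min before luminescence reading. A 4PL fit gave EC50 and Ymin.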

SMILES | EC50 [1] | MKN45 Cell Prolif. 120 hr (Ymin-Obs) [1] | 293T-LentiX WEE1-ePL Degradation 4 hr (Ymin) [2] | DC50 [2]
O=C1CCC(N2C(=O)c3ccc(O[C@H]4CCN(Cc5ccc6ncccc6c5)C4)cc3C2=O)C(=O)N1 (stereo partly drawn) [2-(2,6-dioxopiperidin-3-yl)-5-{[(3S)-1-[(quinolin-6-yl)methyl]pyrrolidin-3-yl]oxy}-2,3-dihydro-1H-isoindole-1,3-dione] | 1030 nM | 21.24 | 29.65 | 43.4 nM
O=C1CCC(N2Cc3cc(O[C@H]4CCN(Cc5ccc6nc([C@H]7C[C@H](O)C7)ccc6c5)C4)ccc3C2=O)C(=O)N1 (stereo partly drawn) [3-(1-oxo-5-{[(3S)-1-({2-[(1r,3r)-3-hydroxycyclobutyl]quinolin-6-yl}methyl)pyrrolidin-3-yl]oxy}-2,3-dihydro-1H-isoindol-2-yl)piperidine-2,6-dione] | 5.02 nM | 7.85 | 32 | 3.8 nM
COC[C@H]1CC[C@H](c2ccc3cc(CN4CC[C@H](Oc5ccc6c(c5)CN(C5CCC(=O)NC5=O)C6=O)C4)ccc3n2)CC1 (stereo partly drawn) [3-(1-oxo-5-{[(3S)-1-({2-[(1r,4r)-4-(methoxymethyl)cyclohexyl]quinolin-6-yl}methyl)pyrrolidin-3-yl]oxy}-2,3-dihydro-1H-isoindol-2-yl)piperidine-2,6-dione] | 2.56 nM | 14.13 | 33.24 | 1.57 nM
O=C1CCC(N2Cc3cc(O[C@H]4CCN(Cc5ccc6nc([C@H]7CC[C@H](O)CC7)ccc6c5)C4)ccc3C2=O)C(=O)N1 (stereo partly drawn) [3-(1-oxo-5-{[(3S)-1-({2-[(1r,4r)-4-hydroxycyclohexyl]quinolin-6-yl}methyl)pyrrolidin-3-yl]oxy}-2,3-dihydro-1H-isoindol-2-yl)piperidine-2,6-dione] | 2.79 nM | 7.3325 | 30 | 4.67 nM
CO[C@H]1CC[C@H](c2ccc3cc(CN4CC[C@H](Oc5ccc6c(c5)CN(C5CCC(=O)NC5=O)C6=O)C4)ccc3n2)CC1 (stereo partly drawn) [3-(1-oxo-5-{[(3S)-1-({2-[(1r,4r)-4-methoxycyclohexyl]quinolin-6-yl}methyl)pyrrolidin-3-yl]oxy}-2,3-dihydro-1H-isoindol-2-yl)piperidine-2,6-dione] | 1.29 nM | 11.035 | 26 | 1.88 nM
O=C1CCC(N2Cc3cc(O[C@H]4CCN(Cc5ccc6nc([C@H]7C[C@@H](O)C7)ccc6c5)C4)ccc3C2=O)C(=O)N1 (stereo partly drawn) [3-(1-oxo-5-{[(3S)-1-({2-[(1s,3s)-3-hydroxycyclobutyl]quinolin-6-yl}methyl)pyrrolidin-3-yl]oxy}-2,3-dihydro-1H-isoindol-2-yl)piperidine-2,6-dione] | 5.21 nM | 6.89 | 31 | 2.09 nM
COC[C@H]1CC[C@@H](c2ccc3cc(CN4CC[C@H](Oc5ccc6c(c5)CN(C5CCC(=O)NC5=O)C6=O)C4)ccc3n2)CC1 (stereo partly drawn) [3-(1-oxo-5-{[(3S)-1-({2-[(1s,4s)-4-(methoxymethyl)cyclohexyl]quinolin-6-yl}methyl)pyrrolidin-3-yl]oxy}-2,3-dihydro-1H-isoindol-2-yl)piperidine-2,6-dione] | 2.66 nM | 12.53 | 28.9 | 1.22 nM
O=C1CCC(N2Cc3cc(O[C@H]4CCN(Cc5ccc6nc([C@H]7CC[C@@H](O)CC7)ccc6c5)C4)ccc3C2=O)C(=O)N1 (stereo partly drawn) [3-(1-oxo-5-{[(3S)-1-({2-[(1s,4s)-4-hydroxycyclohexyl]quinolin-6-yl}methyl)pyrrolidin-3-yl]oxy}-2,3-dihydro-1H-isoindol-2-yl)piperidine-2,6-dione] | 0.329 nM | 7.956 | 33 | 1.03 nM
CO[C@H]1CC[C@@H](c2ccc3cc(CN4CC[C@H](Oc5ccc6c(c5)CN(C5CCC(=O)NC5=O)C6=O)C4)ccc3n2)CC1 (stereo partly drawn) [3-(1-oxo-5-{[(3S)-1-({2-[(1s,4s)-4-methoxycyclohexyl]quinolin-6-yl}methyl)pyrrolidin-3-yl]oxy}-2,3-dihydro-1H-isoindol-2-yl)piperidine-2,6-dione] | 1.14 nM | 9.583 | 30 | 1.12 nM
O=C1CCC(N2Cc3cc(O[C@H]4CCN(Cc5ccc6nc([C@H]7CCOC7)ccc6c5)C4)ccc3C2=O)C(=O)N1 (stereo partly drawn) [3-(1-oxo-5-{[(3S)-1-({2-[(3R)-oxolan-3-yl]quinolin-6-yl}methyl)pyrrolidin-3-yl]oxy}-2,3-dihydro-1H-isoindol-2-yl)piperidine-2,6-dione] | 6.07 nM | 8.454 | 29 | 2.71 nM
O=C1CCC(N2Cc3cc(O[C@H]4CCN(Cc5ccc6nc([C@@H]7CCOC7)ccc6c5)C4)ccc3C2=O)C(=O)N1 (stereo partly drawn) [3-(1-oxo-5-{[(3S)-1-({2-[(3S)-oxolan-3-yl]quinolin-6-yl}methyl)pyrrolidin-3-yl]oxy}-2,3-dihydro-1H-isoindol-2-yl)piperidine-2,6-dione] | 2.45 nM | 8.77 | 30 | 2.41 nM
CC(C)OCc1ccc2cc(CN3CC[C@H](Oc4ccc5c(c4)CN(C4CCC(=O)NC4=O)C5=O)C3)ccc2n1 (stereo partly drawn) [3-(1-oxo-5-{[(3S)-1-({2-[(propan-2-yloxy)methyl]quinolin-6-yl}methyl)pyrrolidin-3-yl]oxy}-2,3-dihydro-1H-isoindol-2-yl)piperidine-2,6-dione] | 3.4 nM | 8.147 | 36 | 6.51 nM
O=C1CCC(N2Cc3cc(O[C@H]4CCN(Cc5ccnc6c5CCCO6)C4)ccc3C2=O)C(=O)N1 (stereo partly drawn) [3-(1-oxo-5-{[(3S)-1-({2H,3H,4H-pyrano[2,3-b]pyridin-5-yl}methyl)pyrrolidin-3-yl]oxy}-2,3-dihydro-1H-isoindol-2-yl)piperidine-2,6-dione] | 489 nM | 27.04 | 44 | 38.9 nM
O=C1CCC(N2Cc3cc(O[C@H]4CCN(Cc5cnc6c(c5)CCCO6)C4)ccc3C2=O)C(=O)N1 (stereo partly drawn) [3-(1-oxo-5-{[(3S)-1-({2H,3H,4H-pyrano[2,3-b]pyridin-6-yl}methyl)pyrrolidin-3-yl]oxy}-2,3-dihydro-1H-isoindol-2-yl)piperidine-2,6-dione] | 1120 nM | 23.52 | 33.245 | 35.4 nM
O=C1CCC(N2Cc3cc(O[C@H]4CCN(Cc5cncc6c5CCCO6)C4)ccc3C2=O)C(=O)N1 (stereo partly drawn) [3-(1-oxo-5-{[(3S)-1-({2H,3H,4H-pyrano[2,3-c]pyridin-5-yl}methyl)pyrrolidin-3-yl]oxy}-2,3-dihydro-1H-isoindol-2-yl)piperidine-2,6-dione] | 69.9 nM | 11.03 | 29.38 | 24.6 nM
O=C1CCC(N2Cc3cc(O[C@H]4CCN(Cc5cc6c(cn5)OCCC6)C4)ccc3C2=O)C(=O)N1 (stereo partly drawn) [3-(1-oxo-5-{[(3S)-1-({2H,3H,4H-pyrano[2,3-c]pyridin-6-yl}methyl)pyrrolidin-3-yl]oxy}-2,3-dihydro-1H-isoindol-2-yl)piperidine-2,6-dione] | 153 nM | 12.988 | 33 | 12.3 nM
O=C1CCC(N2Cc3cc(O[C@H]4CCN(Cc5nccc6c5CCCO6)C4)ccc3C2=O)C(=O)N1 (stereo partly drawn) [3-(1-oxo-5-{[(3S)-1-({2H,3H,4H-pyrano[3,2-c]pyridin-5-yl}methyl)pyrrolidin-3-yl]oxy}-2,3-dihydro-1H-isoindol-2-yl)piperidine-2,6-dione] | 122 nM | 16.99 | 36 | 16.1 nM
